The values that follow come from DBAASP.

Values after ≈ are worked out from the molar mass of the structure shown. Values joined by “and” are separate entries in the source; they are usually repeats but may differ in a detail not shown here. Identical values can stand only once.

Assay in all cases: ≥ marks a high value that may be exact or a test limit, other limits are often not marked, values filed in µg/mL are converted to µM
Assay [1] relates to Acinetobacter baumannii ATCC 17978.
Assay [2] has as its system Escherichia coli ATCC 8739.
Assay [3] relates to Staphylococcus aureus HNCMO 112011.
In assay [4] the test system is Candida albicans.
For assay [5], the system named is Candida glabrata.
Assay [6] relates to Candida krusei ATCC 6258.
In assay [7] the test system is Candida parapsilosis ATCC 22019.
Assay [8] deals with Klebsiella pneumoniae.
Assay [9] has as its system Listeria monocytogenes.
For assay [10], the system named is Pasteurella multocida.
The subject of assay [11] is Pseudomonas aeruginosa ATCC 27853.
For assay [12], the system named is Staphylococcus aureus ATCC 29213.
Assay [13] deals with Staphylococcus aureus MR.
Assay [14] concerns Streptococcus agalactiae ATCC 12386.
The subject of assay [15] is Streptococcus dysgalactiae.
For assay [16], the system named is Streptococcus equi.
Assay [17] has as its system Streptococcus lutetiensis.
Assay [18] relates to Streptococcus mutans.
Assay [19] concerns Streptococcus oralis.
Assay [20] relates to Streptococcus pneumoniae ATCC 49619.
Assay [21] relates to Streptococcus pyogenes ATCC 19615.
The test system of assay [22] is Streptococcus salivarius.

Regarding `CC[C@H](C)[C@H](NC(=O)[C@H](CCCCN)NC(=O)[C@H](CCCCN)NC(=O)[C@H](C)NC(=O)[C@H](CC(C)C)NC(=O)[C@H](C)NC(=O)[C@H](C)NC(=O)[C@H](CC(C)C)NC(=O)[C@H](C)NC(=O)[C@H](CCCCN)NC(=O)[C@H](CCCN=C(N)N)NC(=O)[C@H](CCCN=C(N)N)NC(=O)[C@H](CCCN=C(N)N)NC(=O)[C@H](CS)NC(=O)[C@H](Cc1ccc(O)cc1)NC(=O)[C@H](CC(C)C)NC(=O)[C@@H]1CCCN1C(=O)[C@H](CCCN=C(N)N)NC(=O)[C@H](CCCN=C(N)N)NC(=O)[C@H](CS)NC(=O)[C@H](CCC(N)=O)NC(=O)[C@@H](N)CCC(N)=O)C(=O)N[C@@H](CC(C)C)C(=O)O` [QQCRRPLYCRRRKALAALAKKIL], the MIC in [1], in assay [2] and in assay [3] was 3.1 µM (≈ 8.54 µg/mL) each time.
With `CC[C@H](C)[C@H](NC(=O)CNC(=O)[C@H](CC(=O)O)NC(=O)CNC(=O)[C@H](CC(C)C)NC(=O)[C@H](CCCN=C(N)N)NC(=O)[C@H](CCCCN)NC(=O)[C@H](CC(C)C)NC(=O)[C@H](CC(C)C)NC(=O)[C@H](CO)NC(=O)[C@H](CCCN=C(N)N)NC(=O)[C@H](CCCN=C(N)N)NC(=O)[C@H](CCCCN)NC(=O)[C@@H](NC(=O)[C@H](CCCCN)NC(=O)[C@@H](N)CO)[C@@H](C)O)C(=O)N[C@@H](CCCN=C(N)N)C(=O)NCC(=O)N[C@@H](Cc1ccccc1)C(=O)N[C@@H](Cc1c[nH]c2ccccc12)C(=O)N[C@@H](CC(N)=O)C(=O)NCC(=O)N[C@@H](Cc1ccccc1)C(=O)N[C@@H](CCCN=C(N)N)C(=O)NCC(=O)N[C@@H](CCCN=C(N)N)C(=O)N[C@@H](CCCCN)C(=O)O` [SKTKRRSLLKRLGDGIRGFWNGFRGRK], the minimum inhibitory concentration (MIC) (usually the least concentration at which growth counts as inhibited) in assay [4] is above 20.1 µM; in assay [5], 20.1 µM (≈ 64 µg/mL); in [6] it was 20.1 µM (≈ 64 µg/mL); in [7] it was 10 µM (≈ 32 µg/mL); in assay [8], above 20.1 µM; in [9], 20.1 µM (≈ 64 µg/mL). The MIC was 20.1 µM (≈ 64 µg/mL) in [10]; above 20.1 µM in [11]; 10 µM and 6.27 µM in [12]; 10 µM (≈ 32 µg/mL) in [13]; 20.1 µM (≈ 64 µg/mL) in assay [14]; 20.1 µM (≈ 64 µg/mL) in assay [15]. The MIC in assay [16], in assay [17], in assay [18], in assay [19], in assay [20] and in assay [21] was 20.1 µM (≈ 64 µg/mL) throughout. Besides, the MIC in assay [22] amounted to 10 µM (≈ 32 µg/mL).
